Results published in US20260207585A1, “METHODS AND COMPOSITIONS FOR THE TREATMENT OF PARKINSON'S DISEASE, HUNTINGTON'S DISEASE, AMYOTROPHIC LATERAL SCLEROSIS, AND LEARNING DISORDERS” (Cedars-Sinai Medical Center, priority 2022, published 2026).
Where two headings read alike, the source gives them in different places.

How the values were obtained:
GLP = biological target: T1, GLP (Homo sapiens, UniProt Q9H9B1); experiment: Methyltransferase inhibition panel: GLP; assay type: biochemical
T1 sequence (Q9H9B1 1-1298): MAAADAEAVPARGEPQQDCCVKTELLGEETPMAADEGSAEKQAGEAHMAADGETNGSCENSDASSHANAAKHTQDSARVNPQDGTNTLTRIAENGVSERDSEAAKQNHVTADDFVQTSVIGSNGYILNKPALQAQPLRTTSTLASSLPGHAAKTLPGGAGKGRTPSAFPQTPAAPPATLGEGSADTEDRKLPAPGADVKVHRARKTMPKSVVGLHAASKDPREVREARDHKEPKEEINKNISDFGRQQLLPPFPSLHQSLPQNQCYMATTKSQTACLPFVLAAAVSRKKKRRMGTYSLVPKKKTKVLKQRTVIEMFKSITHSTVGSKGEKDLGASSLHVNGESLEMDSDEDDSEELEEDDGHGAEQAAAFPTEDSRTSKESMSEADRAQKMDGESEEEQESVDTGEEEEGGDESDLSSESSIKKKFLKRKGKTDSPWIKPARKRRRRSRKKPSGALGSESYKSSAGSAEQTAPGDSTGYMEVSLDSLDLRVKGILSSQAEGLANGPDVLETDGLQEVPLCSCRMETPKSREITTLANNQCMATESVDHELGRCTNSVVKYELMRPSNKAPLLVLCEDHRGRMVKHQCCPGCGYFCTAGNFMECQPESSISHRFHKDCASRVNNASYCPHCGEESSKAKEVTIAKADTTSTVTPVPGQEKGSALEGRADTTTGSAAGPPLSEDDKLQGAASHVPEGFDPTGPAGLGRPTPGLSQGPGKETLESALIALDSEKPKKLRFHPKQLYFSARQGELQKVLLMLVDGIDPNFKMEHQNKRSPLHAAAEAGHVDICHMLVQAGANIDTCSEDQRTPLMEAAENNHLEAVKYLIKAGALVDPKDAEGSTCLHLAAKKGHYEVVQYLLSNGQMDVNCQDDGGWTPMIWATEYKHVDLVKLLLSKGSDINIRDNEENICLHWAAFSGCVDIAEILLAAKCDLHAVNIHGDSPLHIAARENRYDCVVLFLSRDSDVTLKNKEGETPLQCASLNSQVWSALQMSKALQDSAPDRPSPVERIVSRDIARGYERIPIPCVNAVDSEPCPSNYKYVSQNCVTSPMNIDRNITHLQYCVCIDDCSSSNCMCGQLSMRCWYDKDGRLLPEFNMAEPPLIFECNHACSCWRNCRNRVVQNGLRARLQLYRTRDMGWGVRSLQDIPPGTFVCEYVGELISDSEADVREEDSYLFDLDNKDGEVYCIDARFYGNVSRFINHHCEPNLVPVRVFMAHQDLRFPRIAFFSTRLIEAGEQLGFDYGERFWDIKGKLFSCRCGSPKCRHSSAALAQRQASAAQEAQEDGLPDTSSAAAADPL
Description: (§1) The ability of ETP69 to inhibit methyltransferases was tested.

NSD2 (E1099K) = biological target: T2, NSD2 (E1099K) (Homo sapiens, UniProt O96028, E1099K); experiment: Methyltransferase inhibition panel: NSD2 (E1099K); assay type: biochemical
T2 sequence (O96028 1-1365 E1099K): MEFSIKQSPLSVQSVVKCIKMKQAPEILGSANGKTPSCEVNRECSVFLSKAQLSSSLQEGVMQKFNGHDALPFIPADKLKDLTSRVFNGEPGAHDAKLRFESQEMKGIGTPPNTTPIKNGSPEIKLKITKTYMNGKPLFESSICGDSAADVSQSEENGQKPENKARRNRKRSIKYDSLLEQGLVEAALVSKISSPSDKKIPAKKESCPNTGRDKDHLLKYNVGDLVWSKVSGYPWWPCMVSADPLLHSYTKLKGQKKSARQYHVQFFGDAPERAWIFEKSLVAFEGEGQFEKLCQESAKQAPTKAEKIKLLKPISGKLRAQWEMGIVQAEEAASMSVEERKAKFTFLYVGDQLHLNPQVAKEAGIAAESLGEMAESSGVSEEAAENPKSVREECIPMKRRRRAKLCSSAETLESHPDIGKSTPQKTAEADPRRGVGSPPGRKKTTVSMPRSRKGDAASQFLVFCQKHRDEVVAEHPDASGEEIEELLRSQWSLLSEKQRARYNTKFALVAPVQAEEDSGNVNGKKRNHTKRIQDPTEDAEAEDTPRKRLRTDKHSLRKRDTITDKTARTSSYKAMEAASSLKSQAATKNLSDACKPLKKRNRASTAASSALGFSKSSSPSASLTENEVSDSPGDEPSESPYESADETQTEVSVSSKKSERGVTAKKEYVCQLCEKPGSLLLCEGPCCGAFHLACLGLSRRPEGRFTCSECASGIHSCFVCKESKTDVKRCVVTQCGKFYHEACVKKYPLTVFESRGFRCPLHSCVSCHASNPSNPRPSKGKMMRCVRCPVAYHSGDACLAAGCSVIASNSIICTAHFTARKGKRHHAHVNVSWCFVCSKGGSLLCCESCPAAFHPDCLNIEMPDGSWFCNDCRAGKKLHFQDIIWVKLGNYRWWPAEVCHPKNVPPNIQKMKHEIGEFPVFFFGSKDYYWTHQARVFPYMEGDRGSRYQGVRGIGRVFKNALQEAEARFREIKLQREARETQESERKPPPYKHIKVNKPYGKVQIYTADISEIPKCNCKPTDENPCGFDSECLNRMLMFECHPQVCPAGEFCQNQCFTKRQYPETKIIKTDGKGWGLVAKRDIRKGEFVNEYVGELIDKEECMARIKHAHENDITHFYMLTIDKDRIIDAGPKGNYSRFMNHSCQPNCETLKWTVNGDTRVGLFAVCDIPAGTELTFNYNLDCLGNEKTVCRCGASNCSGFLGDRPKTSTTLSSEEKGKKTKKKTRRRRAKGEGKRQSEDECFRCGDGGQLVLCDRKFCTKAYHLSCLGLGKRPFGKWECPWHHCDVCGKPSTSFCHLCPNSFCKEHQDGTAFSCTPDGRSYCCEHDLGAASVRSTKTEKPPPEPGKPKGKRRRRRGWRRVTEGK
Description: as §1

AD+ mice = experiment: Fear conditioning test; assay type: in vivo
Description: The effects of single and repeated ETP69 injections in mice were tested. The experimental timeline is depicted in FIG. 5. Three parallel injection conditions were tested: a single ETP69 condition, a boosted ETP69 injection, and repeated ETP69 injections. The single injection mice received one injection of ETP69 or DMSO at Day 0. The mice that received a boosted injection received one injection of ETP69 or DMSO at day 0 and one injection at day 9. The mice that received repeated injections received 11 injections of ETP69 or DMSO at day 0 or day 9. Both wildtype and AD model (APP/PS1-transgenic) mice were tested.
The results of the Open Field Barnes Maze test indicate hippocampal-based spatial memory. FIG. 7A depicts a schematic of the Barnes Maze Test. […] The results of the fear conditioning test indicate spatial memory.

[1] = read-out: Enzyme % Activity (relative to DMSO controls) Data 1
[2] = read-out: Enzyme % Activity (relative to DMSO controls) Data 2

`CN1C(=O)[C@@]23C[C@](C)(C#N)[C@H](c4ccc5c(c4)OCO5)N2C(=O)[C@]1(C)SS3` (racemic) [ETP69, Rac-(3S,6S,7S,8aS)-6-(benzo[d][1,3]dioxol-5-yl)-2,3,7-trimethyl-1,4-dioxohexahydro-6H-3,8a-epidithiopyrrolo[1,2-a]pyrazine-7-carbonitrile] was tested, and the remaining activity at 2.5 µM (GLP; [1]) was 91.4%, the remaining activity at 2.5 µM (GLP; [2]) was 94.2% and the remaining activity at 20 µM (NSD2 (E1099K); [1]) was 32.3%. For the same compound, the remaining activity at 20 µM (NSD2 (E1099K); [2]) was 32.7%, the “inhibition relative to DMSO controls” value (NSD2 (E1099K); summary of Table 1) was “at least 7500” and the freezing time (AD+ mice) was “increased”.
